# From patent US20210106742A1, “NON-HEMOLYTIC COMPOSITIONS AND METHODS OF USE FOR RECOVERING DISEASE CAUSING TOXIC CONSTITUENTS IN THE BLOOD” (ACTORIUS INNOVATIONS AND RESEARCH CO, priority 2019, published 2021)
# Where two headings read alike, the source gives them in different places.
# Tests used:
# [1] = tested on: Red Blood Cells from whole human blood; assay: Red Blood Cells hemolysis assay
# Method: Red Blood Cells from whole human blood were separated by centrifugation at room temperature and washed in sodium chloride solution two times and resuspended in phosphate buffer saline with pH 7.4. The resuspended red blood cells were incubated with the composition to be evaluated for 30 minutes at 37° C. The samples were centrifuged and the supernatant collected and analyzed for hemolysis using UV spectroscopy. The percentage of hemolysis was estimated against a negative control phosphate buffer saline with pH 7.4 and positive control 0.5% Triton-X100 prepared in phosphate-buffered saline with pH 7.4.
# Red Blood Cells from whole human blood (5 milliliter) were separated by centrifugation (500×g, 5 minutes) at room temperature and washed in 150 mM sodium chloride (NaCl) solution two times and resuspended in a total final volume of 5 milliliter with phosphate buffered saline with pH 7.4. The resuspended red blood cells were incubated by mixing with materials listed in Table 1 for 30 minutes at 37° C. The samples were centrifuged (500×g, 5 minutes, room temperature), and supernatants were collected and analyzed for hemolysis using UV spectroscopy at spectra 540 nm. The percentage hemolysis was estimated against a negative control phosphate buffered saline with pH 7.4 and positive control 0.5% Triton-X100.
# [2] = tested on: circulating tumor cells (CTC); assay: Destruction of circulating tumor cells using cisplatin; type: cell-based, human; settings: CTCs isolated with composition of example 33; 30 micrograms Cisplatin in 100 microliter PBS pH 7.4, two hours
# Method: (§1) 1.5 ml blood of a cancer patient was incubated with 300 micrograms of composition of example 33 for 5 minutes. CTCs were isolated using magnetic separation and cells were fixed with absolute ethanol and immuno-stained with cytokeratin (CK-18), leucocyte common antigen (CD-45) and with nuclear-staining probe 4′,6-diamidino-2-phenylindole (DAPI). Captured cells were imaged under fluorescence microscope, wherein 3 CTCs were isolated.
# as §1, with “incubated for two hours with 30 micrograms Cisplatin in 100 microliter phosphate buffered saline, pH 7.4, and the composition was” for “cells were”, “(DAPI) and” for “(DAPI). Captured cells were”, “microscope.” for “microscope, wherein 3 CTCs were isolated.”
compound,measurement,setting,value
Triton-X100,Percentage Hemolysis,[1],100%
CCO[Si](CCCN)(OCC)OCC [(3-Aminopropyl)triethoxysilane],Percentage Hemolysis,"[1]; sample amount 0.5%, 30 minutes at 37° C.",0%
same,Percentage Hemolysis,"[1]; sample amount 10%, 30 minutes at 37° C.",36%
N.N.[Cl][Pt][Cl] [Cisplatin],CTCs observed after incubation with the drug,[2],No CTCs were observed
